Our source for the EC50, IC50 and outcome values is PubChem BioAssay AID179 (DTP/NCI, 2004).

Calls of active or inactive are those of the source.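 How the source made its calls: active means compounds giving half or more protection of infected cells from virus-caused growth loss, again on retest; inactive means the rest.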 Some results are limits rather than exact numbers.

This experiment deals with CEM cells HIV-1 protection, formazan growth assay. Put plainly: NCI AIDS Antiviral Assay. The conditions noted are these: for IC50: measured here: growth of uninfected CEM cells. An outline of the steps: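 Human CEM cells, uninfected and HIV-1-infected, exposed to five drug concentrations; growth measured by soluble formazan assay and scored as percent protection from infection, with protecting compounds retested.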

A word on the EC50: it is the concentration needed to bring the measured effect to its halfway point. Usually IC50 stands for the concentration that inhibits the measured activity by half. Consider `Nc1c(N=Nc2ccc(S(=O)(=O)c3ccc(N=Nc4cc(S(=O)(=O)O)c5cccc(S(=O)(=O)O)c5c4N)cc3)cc2)cc(S(=O)(=O)O)c2cccc(S(=O)(=O)O)c12`, for which the EC50 was 25.1 µM and the IC50 turned out to be 380 µM. For `O=C(NNC1=NCCCCN1)Nc1ccc(Cl)cc1` the same measures were 107 µM and greater than 200 µM.

On to `O=C(O)Cc1cccc2c(=O)c3ccccc3oc12`, for which the EC50 was greater than 200 µM and the IC50 is greater than 200 µM. As to `COC(=O)Cc1c([C@H]2[C@H](CC(=O)OC)c3ccccc3N2C(C)=O)[nH]c2ccccc12`, the EC50 was greater than 200 µM and the IC50 came out at 97.7 µM. For `CCOC(=O)/C=C(\CCOC1CCCCO1)[Si](C)(C)c1ccccc1` (stereo not given) the same measures were greater than 20 µM and greater than 20 µM.

For `Cc1ccc(S(=O)C[C@@]2(C(F)F)NC(=O)NC2=O)cc1` (stereo not given in full), the EC50 was greater than 200 µM and the IC50 stood at 178 µM.

For the compound `C/C(CC(=O)Nc1ccc(C)c(C)c1)=N\NC(N)=S`, the EC50 is greater than 891 µM and the IC50 worked out at 117 µM. In the same order, the values of `COc1ccc(N=C2C(=Nc3ccc(OC)cc3)N(c3ccccc3[N+](=O)[O-])C(=S)N2c2ccc(OC)cc2)cc1` are greater than 200 µM and 47.9 µM. For `Nc1ccn(C2CC(F)C(CO)O2)c(=O)n1` (stereo not given) the same measures were 0.148 µM and 427 µM.

In the case of `CC(C)(C)[C@H]1CO[C@]2(c3ccccc3)[C@@H]3C[C@@H]3C(=O)N12`, the outcome was inactive. As to `CN(C)c1ccc(/C=C2\Cc3ccccc3C2=O)cc1Br`, the EC50 was greater than 11 µM and the IC50 was greater than 11 µM. Regarding `COCC12CN(C)C3C4C(OC)C1C3(C(OC)CC2O)C1CC2(O)C(OC)C(O)C4(OC(C)=O)C1C2OC(=O)c1ccccc1` (stereo not given), the outcome was inactive. For the compound `O=C(/C=C/c1cc(F)ccc1F)OCCc1ccccc1`, the outcome was inactive and the IC50 was 141 µM. Regarding `CC(CN(C)C)OCCn1c2c(c3ccccc31)CCCC2` (stereo not given), the EC50 is greater than 200 µM and the IC50 came out at 13.5 µM. `CO/N=C1\CC(n2cc(C)c(=O)[nH]c2=O)OC1CO` (stereo not given): the EC50 was greater than 200 µM and the IC50 is greater than 200 µM. Take `O=C(c1ccco1)N(C(=O)N1CCCCC1)c1ccccc1`: the EC50 was greater than 200 µM and the IC50 was greater than 200 µM. In the case of `C[C@@H]1OC2(O)[C@H]3CCCN3S(=O)(=O)CCN2C1=O` (stereo not given in full), the EC50 was greater than 912 µM and the IC50 was greater than 912 µM. Consider `CCOC(=O)C1C(c2ccc(O)c(OC)c2)c2c([nH][nH]c2=O)CC1(C)O` (stereo not given), for which the EC50 was greater than 200 µM and the IC50 is greater than 200 µM. For `Nc1cnc(Nc2cccc3ccccc23)o1`, the EC50 was greater than 200 µM and the IC50 was greater than 200 µM. `O=C(Nc1nn[nH]n1)c1nc(-c2ccccc2)cc(=O)[nH]1`: the EC50 is greater than 200 µM and the half-maximal inhibitory concentration (IC50) was greater than 200 µM. Take `COc1ccc2cc1Oc1ccc(cc1)C[C@H]1NCCc3cc(OC)c(cc31)Oc1c(O)c(OC)cc3c1CCN(C)C3C2` (stereo not given in full): the outcome was inactive. As for `Clc1cccc(Cl)c1C1CSc2ccccc2N=C1c1ccccc1` (stereo not given), the EC50 is greater than 57.5 µM and the IC50 stood at 7.24 µM.

With `COC(=O)/C(=C\c1ccco1)P(=O)(OC)OC`, the EC50 was greater than 200 µM and the IC50 is 191 µM.

For the compound `Cn1cc(NC(=O)c2cc(N)nn2C)cc1C(=O)Nc1ccc2cc(S(=O)(=O)O)cc(S(=O)(=O)O)c2c1`, the EC50 is greater than 200 µM and the IC50 is greater than 200 µM.
